Laboratory results as given in ChEMBL document CHEMBL5465560, “Selectivity Literature for EUbOPEN Chemogenomic Library” (2024).
One block for each molecule: values may come before it.

How the values were obtained:
[1] = target: Sodium channel protein type 2 subunit alpha (Homo sapiens) (UniProt Q99250); assay: Selectivity interaction (Eurofins CEREP Diversity Profile (receptors and ion channels)) EUB0000279b SCN2A; conditions: at 10 µM
[2] = target: T1, Serine/threonine-protein kinase LATS2 (Homo sapiens) (UniProt Q9NRM7); assay: Selectivity interaction (KinomeScan (DiscoverX)) EUB0000618a LATS2; conditions: at 10 µM
T1 sequence (whole entry): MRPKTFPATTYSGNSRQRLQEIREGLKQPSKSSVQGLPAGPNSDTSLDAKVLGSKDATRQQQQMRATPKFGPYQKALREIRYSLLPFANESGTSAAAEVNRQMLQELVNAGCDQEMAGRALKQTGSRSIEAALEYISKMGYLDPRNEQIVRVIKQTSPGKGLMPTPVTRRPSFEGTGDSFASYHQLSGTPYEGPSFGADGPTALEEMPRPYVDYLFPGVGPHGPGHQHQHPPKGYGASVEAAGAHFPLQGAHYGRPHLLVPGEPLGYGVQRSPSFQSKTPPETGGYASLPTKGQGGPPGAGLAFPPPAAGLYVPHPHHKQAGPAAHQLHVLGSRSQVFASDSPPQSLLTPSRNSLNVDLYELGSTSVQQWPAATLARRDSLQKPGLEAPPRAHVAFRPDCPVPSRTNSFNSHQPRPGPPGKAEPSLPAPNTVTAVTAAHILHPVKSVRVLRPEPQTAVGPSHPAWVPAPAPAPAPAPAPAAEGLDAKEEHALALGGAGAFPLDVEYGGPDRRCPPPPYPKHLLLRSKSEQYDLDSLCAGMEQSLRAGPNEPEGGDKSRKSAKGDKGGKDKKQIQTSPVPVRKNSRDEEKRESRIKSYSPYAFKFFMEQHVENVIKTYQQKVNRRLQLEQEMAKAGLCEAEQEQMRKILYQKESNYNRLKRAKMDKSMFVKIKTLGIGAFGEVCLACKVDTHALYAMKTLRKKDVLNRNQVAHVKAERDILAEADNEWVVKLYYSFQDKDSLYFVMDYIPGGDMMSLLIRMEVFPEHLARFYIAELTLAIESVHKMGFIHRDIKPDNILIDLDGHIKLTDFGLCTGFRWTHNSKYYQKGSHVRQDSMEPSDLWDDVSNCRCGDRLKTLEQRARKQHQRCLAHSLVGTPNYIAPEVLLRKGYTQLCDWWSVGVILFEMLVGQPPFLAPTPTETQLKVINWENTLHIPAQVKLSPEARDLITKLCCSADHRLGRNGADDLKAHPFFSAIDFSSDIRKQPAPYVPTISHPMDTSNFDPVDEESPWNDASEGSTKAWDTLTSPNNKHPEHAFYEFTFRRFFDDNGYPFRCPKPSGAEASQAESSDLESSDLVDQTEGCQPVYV

[3] = target: Tyrosine-protein kinase Fyn (Homo sapiens) (UniProt P06241); assay: Selectivity interaction (ActivX KiNativ screen (ex vivo kinase selectivity in human PBMCs)) EUB0001619a FYN; format: cell-based; conditions: PBMC, at 1 µM
[4] = target: T2, Phosphatidylinositol 3-kinase C2 domain-containing subunit gamma (Homo sapiens) (UniProt O75747); conditions: at 10 µM
T2 sequence (whole entry): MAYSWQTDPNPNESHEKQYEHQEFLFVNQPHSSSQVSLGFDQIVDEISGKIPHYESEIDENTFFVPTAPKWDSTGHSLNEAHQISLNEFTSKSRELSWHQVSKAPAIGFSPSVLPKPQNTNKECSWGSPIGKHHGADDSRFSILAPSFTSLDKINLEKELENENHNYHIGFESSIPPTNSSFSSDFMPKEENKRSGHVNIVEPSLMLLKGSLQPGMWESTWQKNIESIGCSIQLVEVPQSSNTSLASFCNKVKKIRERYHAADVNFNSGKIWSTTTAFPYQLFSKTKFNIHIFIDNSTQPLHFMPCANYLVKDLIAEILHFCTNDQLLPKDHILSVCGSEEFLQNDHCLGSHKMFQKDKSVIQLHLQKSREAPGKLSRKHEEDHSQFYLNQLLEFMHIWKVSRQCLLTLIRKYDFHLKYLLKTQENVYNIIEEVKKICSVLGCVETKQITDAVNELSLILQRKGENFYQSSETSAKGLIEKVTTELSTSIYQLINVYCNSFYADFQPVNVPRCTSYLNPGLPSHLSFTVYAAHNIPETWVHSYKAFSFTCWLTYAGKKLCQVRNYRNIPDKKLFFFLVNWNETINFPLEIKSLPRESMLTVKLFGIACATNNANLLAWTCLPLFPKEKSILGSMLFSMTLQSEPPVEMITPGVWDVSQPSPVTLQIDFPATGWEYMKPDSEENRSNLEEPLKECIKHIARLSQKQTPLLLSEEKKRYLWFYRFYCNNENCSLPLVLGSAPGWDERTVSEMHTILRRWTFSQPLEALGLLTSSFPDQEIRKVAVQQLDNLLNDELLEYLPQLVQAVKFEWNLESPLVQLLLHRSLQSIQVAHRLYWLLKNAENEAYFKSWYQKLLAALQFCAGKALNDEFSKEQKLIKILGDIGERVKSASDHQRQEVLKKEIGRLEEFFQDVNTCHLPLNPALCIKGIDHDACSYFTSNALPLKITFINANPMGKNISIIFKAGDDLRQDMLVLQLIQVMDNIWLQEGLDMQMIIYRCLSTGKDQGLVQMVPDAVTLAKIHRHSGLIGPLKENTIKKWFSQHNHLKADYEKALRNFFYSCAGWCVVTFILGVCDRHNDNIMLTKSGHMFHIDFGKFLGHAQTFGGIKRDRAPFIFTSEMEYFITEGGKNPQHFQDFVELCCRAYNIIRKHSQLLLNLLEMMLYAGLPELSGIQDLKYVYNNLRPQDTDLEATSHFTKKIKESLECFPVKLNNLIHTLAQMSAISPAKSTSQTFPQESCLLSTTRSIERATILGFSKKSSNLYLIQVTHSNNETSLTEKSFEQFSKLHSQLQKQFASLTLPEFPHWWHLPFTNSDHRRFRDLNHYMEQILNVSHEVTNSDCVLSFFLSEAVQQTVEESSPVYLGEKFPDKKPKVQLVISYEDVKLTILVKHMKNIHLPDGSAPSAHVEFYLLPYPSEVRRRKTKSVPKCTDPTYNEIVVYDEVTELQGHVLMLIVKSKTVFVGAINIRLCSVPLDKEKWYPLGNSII

[5] = target: Dual specificity tyrosine-phosphorylation-regulated kinase 1B (Homo sapiens, UniProt Q9Y463); assay: Selectivity interaction (Kinase panel (Invitrogen)) EUB0000639a DYRK1B; conditions: at 200 nM
[6] = target: Ribosomal protein S6 kinase alpha-3 (Homo sapiens, UniProt P51812); assay: Selectivity interaction (ActivX KiNativ screen (kinase selectivity in THP-1 cell lysates)) EUB0000639a RPS6KA3; format: subcellular; conditions: lysate, at 1 µM
[7] = target: Dual specificity mitogen-activated protein kinase kinase 2 (Homo sapiens) (UniProt P36507); assay: Selectivity interaction (KinomeScan (DiscoverX)) EUB0000666a MAP2K2; conditions: at 10 µM
Sequence of Dual specificity mitogen-activated protein kinase kinase 2 (Homo sapiens) (P36507 whole entry): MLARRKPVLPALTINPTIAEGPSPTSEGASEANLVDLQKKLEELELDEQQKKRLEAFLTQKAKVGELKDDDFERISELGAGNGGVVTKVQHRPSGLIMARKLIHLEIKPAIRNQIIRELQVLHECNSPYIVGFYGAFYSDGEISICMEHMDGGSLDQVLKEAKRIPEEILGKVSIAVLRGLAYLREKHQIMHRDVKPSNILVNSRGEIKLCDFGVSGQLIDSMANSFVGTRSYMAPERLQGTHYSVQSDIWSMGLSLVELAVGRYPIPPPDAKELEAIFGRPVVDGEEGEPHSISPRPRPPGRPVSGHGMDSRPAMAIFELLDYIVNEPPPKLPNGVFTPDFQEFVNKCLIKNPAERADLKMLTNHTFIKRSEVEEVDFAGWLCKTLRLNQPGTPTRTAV

Sequence of Dual specificity tyrosine-phosphorylation-regulated kinase 1B (Q9Y463 whole entry, looked up): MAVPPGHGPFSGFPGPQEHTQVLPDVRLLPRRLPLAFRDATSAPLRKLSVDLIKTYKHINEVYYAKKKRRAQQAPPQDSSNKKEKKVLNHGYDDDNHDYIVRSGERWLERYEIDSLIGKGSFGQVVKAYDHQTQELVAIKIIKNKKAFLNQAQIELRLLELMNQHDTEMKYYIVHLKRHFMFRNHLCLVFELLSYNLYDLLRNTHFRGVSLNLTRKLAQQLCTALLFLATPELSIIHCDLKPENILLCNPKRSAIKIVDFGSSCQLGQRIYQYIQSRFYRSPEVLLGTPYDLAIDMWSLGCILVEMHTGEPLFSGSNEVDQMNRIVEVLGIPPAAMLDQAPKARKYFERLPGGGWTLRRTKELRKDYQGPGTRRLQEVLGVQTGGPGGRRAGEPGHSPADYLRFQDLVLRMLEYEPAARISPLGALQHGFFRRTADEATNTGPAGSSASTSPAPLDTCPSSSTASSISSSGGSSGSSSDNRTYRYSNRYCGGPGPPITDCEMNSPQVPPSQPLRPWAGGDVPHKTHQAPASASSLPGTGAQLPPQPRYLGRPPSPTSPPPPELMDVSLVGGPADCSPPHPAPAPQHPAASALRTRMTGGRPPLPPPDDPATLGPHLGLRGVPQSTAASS
Sequence of Sodium channel protein type 2 subunit alpha (Homo sapiens) (Q99250 whole entry, looked up): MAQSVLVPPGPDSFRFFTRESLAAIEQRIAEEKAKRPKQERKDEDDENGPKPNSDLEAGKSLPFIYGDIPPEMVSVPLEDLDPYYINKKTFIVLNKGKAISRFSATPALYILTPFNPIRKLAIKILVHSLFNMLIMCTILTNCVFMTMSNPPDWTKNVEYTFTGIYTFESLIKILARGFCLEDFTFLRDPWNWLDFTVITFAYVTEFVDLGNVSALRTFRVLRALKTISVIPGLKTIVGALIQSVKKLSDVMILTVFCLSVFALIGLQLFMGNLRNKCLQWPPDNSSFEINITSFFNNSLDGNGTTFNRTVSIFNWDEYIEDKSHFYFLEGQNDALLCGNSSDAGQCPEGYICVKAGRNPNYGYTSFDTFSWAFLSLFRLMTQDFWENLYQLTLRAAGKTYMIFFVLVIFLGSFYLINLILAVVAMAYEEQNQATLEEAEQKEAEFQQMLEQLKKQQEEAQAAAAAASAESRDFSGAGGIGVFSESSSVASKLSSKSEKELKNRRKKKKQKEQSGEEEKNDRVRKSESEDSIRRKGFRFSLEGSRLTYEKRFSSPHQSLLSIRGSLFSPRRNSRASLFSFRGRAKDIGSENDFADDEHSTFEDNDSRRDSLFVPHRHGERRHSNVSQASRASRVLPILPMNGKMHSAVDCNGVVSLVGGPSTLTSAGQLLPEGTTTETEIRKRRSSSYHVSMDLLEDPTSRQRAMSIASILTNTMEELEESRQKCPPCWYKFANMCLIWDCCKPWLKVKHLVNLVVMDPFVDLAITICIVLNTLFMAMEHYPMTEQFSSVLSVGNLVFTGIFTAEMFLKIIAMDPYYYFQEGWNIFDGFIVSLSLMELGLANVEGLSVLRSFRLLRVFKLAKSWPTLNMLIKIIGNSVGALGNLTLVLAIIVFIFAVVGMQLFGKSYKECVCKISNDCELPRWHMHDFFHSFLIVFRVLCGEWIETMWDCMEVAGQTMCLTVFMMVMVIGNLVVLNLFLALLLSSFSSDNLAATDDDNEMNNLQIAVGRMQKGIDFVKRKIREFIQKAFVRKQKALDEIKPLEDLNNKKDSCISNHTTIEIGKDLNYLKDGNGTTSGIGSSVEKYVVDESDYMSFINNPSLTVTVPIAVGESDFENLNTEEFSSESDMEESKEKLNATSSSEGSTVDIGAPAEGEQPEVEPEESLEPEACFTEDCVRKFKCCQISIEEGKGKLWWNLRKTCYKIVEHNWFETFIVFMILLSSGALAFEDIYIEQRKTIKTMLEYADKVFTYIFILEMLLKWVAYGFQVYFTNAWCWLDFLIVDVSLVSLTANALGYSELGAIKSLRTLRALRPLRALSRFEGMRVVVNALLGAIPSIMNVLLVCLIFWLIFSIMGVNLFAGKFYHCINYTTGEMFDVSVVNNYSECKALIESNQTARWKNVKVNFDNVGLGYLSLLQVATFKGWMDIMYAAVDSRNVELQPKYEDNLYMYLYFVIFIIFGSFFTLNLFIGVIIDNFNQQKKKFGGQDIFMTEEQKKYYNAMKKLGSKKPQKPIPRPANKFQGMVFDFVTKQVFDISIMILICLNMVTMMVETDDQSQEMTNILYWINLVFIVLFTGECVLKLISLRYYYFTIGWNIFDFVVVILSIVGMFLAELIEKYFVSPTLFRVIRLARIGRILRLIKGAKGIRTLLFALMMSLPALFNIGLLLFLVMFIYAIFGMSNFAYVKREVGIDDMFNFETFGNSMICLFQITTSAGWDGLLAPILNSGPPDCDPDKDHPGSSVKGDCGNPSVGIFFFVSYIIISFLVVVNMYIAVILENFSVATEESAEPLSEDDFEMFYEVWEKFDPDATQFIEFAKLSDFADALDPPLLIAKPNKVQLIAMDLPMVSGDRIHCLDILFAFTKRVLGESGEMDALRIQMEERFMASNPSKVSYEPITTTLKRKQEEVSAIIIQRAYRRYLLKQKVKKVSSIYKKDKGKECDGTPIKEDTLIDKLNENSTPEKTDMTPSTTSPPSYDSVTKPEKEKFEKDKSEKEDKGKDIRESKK
Sequence of Tyrosine-protein kinase Fyn (Homo sapiens) (P06241 2-537 limits assumed): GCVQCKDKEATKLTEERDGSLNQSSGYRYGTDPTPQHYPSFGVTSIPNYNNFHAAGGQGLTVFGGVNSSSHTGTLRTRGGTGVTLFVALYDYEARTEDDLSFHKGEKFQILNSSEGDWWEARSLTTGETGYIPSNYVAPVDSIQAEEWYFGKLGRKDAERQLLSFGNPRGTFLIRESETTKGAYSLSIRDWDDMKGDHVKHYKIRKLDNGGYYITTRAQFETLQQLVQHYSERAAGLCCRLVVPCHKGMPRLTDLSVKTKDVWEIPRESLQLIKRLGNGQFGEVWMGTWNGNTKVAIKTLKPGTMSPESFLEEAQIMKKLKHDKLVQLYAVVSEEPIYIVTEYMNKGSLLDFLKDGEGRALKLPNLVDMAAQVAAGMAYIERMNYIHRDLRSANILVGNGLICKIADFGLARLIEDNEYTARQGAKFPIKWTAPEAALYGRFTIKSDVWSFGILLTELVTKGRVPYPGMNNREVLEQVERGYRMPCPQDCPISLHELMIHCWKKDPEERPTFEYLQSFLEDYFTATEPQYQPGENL
Sequence of Ribosomal protein S6 kinase alpha-3 (P51812 whole entry): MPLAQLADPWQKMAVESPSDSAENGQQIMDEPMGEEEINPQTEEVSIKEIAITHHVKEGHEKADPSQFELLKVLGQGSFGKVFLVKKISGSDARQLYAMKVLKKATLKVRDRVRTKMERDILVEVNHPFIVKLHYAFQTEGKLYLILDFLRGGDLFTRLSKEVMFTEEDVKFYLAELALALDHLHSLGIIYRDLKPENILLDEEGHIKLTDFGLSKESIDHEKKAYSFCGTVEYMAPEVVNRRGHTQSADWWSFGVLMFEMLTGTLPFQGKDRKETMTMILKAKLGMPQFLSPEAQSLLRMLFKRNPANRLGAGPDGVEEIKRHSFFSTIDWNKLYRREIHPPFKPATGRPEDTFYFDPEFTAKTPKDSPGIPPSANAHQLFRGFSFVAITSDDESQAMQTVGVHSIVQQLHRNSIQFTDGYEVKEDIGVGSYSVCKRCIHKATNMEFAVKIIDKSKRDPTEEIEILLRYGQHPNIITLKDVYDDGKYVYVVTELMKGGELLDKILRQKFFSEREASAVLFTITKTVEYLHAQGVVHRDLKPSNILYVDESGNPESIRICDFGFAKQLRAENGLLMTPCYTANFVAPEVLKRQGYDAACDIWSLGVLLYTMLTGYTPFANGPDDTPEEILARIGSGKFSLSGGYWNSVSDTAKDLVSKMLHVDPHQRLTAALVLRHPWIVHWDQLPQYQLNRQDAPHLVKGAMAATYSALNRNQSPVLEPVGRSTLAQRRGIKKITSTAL

% of control [1]: 100%
SMILES: CC(=O)c1cc(-c2ccccc2OCC2CC2)c2ncccn12

SMILES: O[C@H]1CC[C@H](Nc2ncc3nc(Nc4c(F)cc(F)cc4F)n([C@H]4CCOC4)c3n2)CC1
% of control [2]: 88%

SMILES: N#Cc1cccc(-c2c[nH]c3ncnc(N4CCOCC4)c23)c1
% of inhibition [3]: -9%

SMILES: Cc1cc([C@@H](C)Nc2ccccc2C(=O)O)c2nc(N3CCOCC3)cc(=O)n2c1 [AZD-6482]
% of control [4]: 7%

% of inhibition [5]: 16.5% | % of inhibition [6]: -10.7%
SMILES: CC[C@@H]1[C@H](F)C(=O)N[C@@H]1COc1nccc2cc(C(N)=O)c(OC)cc12 [ZIMLOVISERTIB]

SMILES: O=C(NOC[C@H](O)CO)c1ccc(F)c(F)c1Nc1ccc(I)cc1F
% of control [7]: 0.2%
